How the values were obtained:
[1] = molecular target: T1, wild type c-kit (Homo sapiens (Human), UniProt P10721); experiment: MSD Phospho c-Kit (Tyr721) Assay Whole Cell Lysate Kit in SCF-stimulated M-07e cells (pKIT assay, marked *); type: cell-based; conditions: Meso Scale Discovery (MSD) assay (values marked *)
Protocol: The ability of compounds of the disclosure (described herein as test compounds) to inhibit autophosphorylation of wild type c-kit was measures using either a PathScan phospho c-kit (Tyr719) sandwich ELISA (CST #7298) or a Phospho c-Kit (Tyr721) Assay Whole Cell Lysate Kit (MSD: 515DPD/catalog number K15119D-2).
For the MSD Phospho c-Kit (Tyr721) Assay Whole Cell Lysate Kit: M-07e cells were maintained in Iscove's Modified Dulbecco's Medium (IMDM) media supplemented with 10% FBS, 5 ng/ml granulocyte-macrophage colony-stimulating factor (GM-CSF) and 100 units/mL Penicillin-Streptomycin, and grown in a 37° C., 5% CO2 in a humidified tissue culture incubator. M-07e cells were washed with phenol red-free, serum-free, GM-CSF-free IMDM and seeded in the same media at 100,000 cells well in a volume of 50 ul in a 96-well U-bottom plate. The cells were incubated for 4 hours, followed by the addition of test compound at a final DMSO concentration of 0.25% for 60 min at 37° C. to generate an 8-point dose concentration series of test compounds. The cells were stimulated with 50 ng/ml human SCF for 10 min at room temperature. Cells were then lysed by the addition of 16.5 ul of PerkinElmer 5× AlphaLISA Lysis Buffer supplemented with Cell Signaling Technologies protease/phosphatase inhibitor. Lysis was encouraged by shaking at 4° C. for 30 minutes.
25 ul of lysate was transferred to the MSD plate and the plate was shaken at 700 rpm at room temperature for one hour, followed by washing 3 times with Tris wash buffer. Next, 25 ul of detection antibody solution (diluted from 50× stock in antibody dilution buffer) was added. After shaking at 700 rpm at room temperature for one hour, the plate was washed 3 times with Tris wash buffer. The plate was then read on MSD Sector Imager immediately after 150 ul of reading buffer added to each well.
An IC50 was calculated using a 4-parameter logistic nonlinear regression.

[2] = molecular target: T1, wild type c-kit; experiment: PathScan phospho c-kit (Tyr719) sandwich ELISA in SCF-stimulated M-07e cells (pKIT assay); type: cell-based; conditions: ELISA assay (values not marked *)
In short: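 Serum- and GM-CSF-starved M-07e cells (4 h) pretreated 60 min at 37 °C with an 8-point compound series in duplicate (0.25% DMSO), then stimulated with human SCF (500 ng/mL stock) 10 min at room temperature. Lysate c-kit Tyr719 phosphorylation quantified by sandwich ELISA with TMB read-out; IC50 from 4-parameter logistic fit.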

[3] = molecular target: human P-glycoprotein (P-gp, MDR1) (Homo sapiens (Human), UniProt P08183); experiment: MDCK-MDR1 cell monolayer drug transport assay (P-gp efflux ratio); type: in vitro ADME; conditions: pH 7.4, MDCK-MDR1 cells; for efflux ratio at 2 h, 1 µM: 1 uM concentration of compound, read-out: Pgp Efflux Ratio, 1 uM
human P-glycoprotein (P-gp, MDR1), sequence (P08183 whole entry): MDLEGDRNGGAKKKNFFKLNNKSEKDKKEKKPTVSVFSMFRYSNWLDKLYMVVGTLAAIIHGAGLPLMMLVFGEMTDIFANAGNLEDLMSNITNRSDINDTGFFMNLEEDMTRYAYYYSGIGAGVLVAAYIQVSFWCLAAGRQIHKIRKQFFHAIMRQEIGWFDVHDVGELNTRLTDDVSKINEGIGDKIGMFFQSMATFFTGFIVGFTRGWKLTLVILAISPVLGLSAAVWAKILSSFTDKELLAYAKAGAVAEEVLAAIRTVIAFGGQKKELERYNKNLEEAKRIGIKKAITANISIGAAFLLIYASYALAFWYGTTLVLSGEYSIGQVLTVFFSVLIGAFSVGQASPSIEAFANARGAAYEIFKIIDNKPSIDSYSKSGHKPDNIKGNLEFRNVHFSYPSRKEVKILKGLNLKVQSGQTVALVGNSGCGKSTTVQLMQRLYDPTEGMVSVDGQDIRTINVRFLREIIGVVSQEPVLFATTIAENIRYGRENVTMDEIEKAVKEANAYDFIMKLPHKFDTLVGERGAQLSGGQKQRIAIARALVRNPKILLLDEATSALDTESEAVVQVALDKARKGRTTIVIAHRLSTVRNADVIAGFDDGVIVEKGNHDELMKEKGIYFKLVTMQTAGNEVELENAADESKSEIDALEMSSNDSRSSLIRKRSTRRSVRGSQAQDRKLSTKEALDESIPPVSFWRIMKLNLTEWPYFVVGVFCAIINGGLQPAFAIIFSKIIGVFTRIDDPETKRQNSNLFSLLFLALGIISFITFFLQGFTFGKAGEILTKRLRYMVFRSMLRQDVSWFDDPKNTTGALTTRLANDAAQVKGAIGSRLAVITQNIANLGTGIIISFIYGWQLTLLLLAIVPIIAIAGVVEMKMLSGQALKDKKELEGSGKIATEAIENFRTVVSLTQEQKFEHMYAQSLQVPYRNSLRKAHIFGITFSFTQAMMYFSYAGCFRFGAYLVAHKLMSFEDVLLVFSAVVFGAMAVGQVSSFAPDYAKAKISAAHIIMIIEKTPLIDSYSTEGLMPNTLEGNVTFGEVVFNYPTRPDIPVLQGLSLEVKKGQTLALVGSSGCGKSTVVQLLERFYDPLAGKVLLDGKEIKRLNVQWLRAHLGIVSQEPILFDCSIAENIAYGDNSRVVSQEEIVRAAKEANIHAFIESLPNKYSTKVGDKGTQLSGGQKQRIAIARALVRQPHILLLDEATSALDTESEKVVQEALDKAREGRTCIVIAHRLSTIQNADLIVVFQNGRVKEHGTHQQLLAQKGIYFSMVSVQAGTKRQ
In short: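 P-gp substrate potential tested in MDCK-MDR1 monolayers on Transwell supports, cultured 4-8 days; monolayers with TEER <42 ohms·cm2 discarded. Transport run in HBSS (10 mM HEPES, pH 7.4) at 37° C with compound working solution at 1 μM.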

T1 sequence (P10721 26-976): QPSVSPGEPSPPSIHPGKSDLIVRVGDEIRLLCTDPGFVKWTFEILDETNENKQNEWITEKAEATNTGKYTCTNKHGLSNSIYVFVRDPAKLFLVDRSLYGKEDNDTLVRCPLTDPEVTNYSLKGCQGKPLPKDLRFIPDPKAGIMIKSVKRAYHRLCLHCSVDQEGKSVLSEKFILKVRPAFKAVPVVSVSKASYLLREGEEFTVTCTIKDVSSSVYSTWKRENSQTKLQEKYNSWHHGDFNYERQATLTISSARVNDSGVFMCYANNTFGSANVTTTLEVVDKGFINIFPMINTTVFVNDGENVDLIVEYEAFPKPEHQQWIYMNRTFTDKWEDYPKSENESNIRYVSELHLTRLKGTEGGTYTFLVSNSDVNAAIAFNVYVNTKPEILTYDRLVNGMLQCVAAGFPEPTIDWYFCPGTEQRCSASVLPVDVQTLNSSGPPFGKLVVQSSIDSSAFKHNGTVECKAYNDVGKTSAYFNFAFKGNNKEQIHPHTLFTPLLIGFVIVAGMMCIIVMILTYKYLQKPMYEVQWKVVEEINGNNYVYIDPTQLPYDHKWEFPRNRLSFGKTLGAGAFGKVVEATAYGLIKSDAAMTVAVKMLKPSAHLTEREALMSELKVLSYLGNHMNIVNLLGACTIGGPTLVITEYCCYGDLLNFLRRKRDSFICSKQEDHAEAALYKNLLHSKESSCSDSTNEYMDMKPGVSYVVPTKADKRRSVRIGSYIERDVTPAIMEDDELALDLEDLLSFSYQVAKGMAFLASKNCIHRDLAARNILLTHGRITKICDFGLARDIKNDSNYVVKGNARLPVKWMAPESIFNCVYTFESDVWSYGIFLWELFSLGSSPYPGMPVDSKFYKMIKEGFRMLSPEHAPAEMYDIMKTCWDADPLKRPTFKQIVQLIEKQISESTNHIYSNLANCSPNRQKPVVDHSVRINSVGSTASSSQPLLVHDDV

Row | IC50 [1] | IC50 [2] | efflux ratio at 2 h, 1 µM [3] | efflux ratio at 2 h, 0.1 µM ([3]; 0.1 uM concentration of compound (denoted by **), read-out: Pgp Efflux Ratio) | Compound
1 | 6.2 nM | – | – | – | CS(=O)(=O)N1CC(c2nnn(-c3ccc(Cl)c(NC(=O)c4cnn5ccccc45)c3)n2)C1 [Example 187]
2 | 11.6 nM | – | – | – | COC(=O)N1CC(c2nnn(-c3ccc(Cl)c(NC(=O)c4cnn5ccccc45)c3)n2)C1 [Example 194]
3 | 2.1 nM | – | – | – | Cc1ccc(-c2nnn([C@H]3C[C@H](C(F)(F)F)C3)n2)cc1NC(=O)c1cnn2ccccc12 [Example 24, N-(2-methyl-5-(2-((1r,3r)-3-(trifluoromethyl)cyclobutyl)-2H-tetrazol-5-yl)phenyl)pyrazolo[1,5-a]pyridine-3-carboxamide or N-(2-methyl-5-(2-((1s,3s)-3-(trifluoromethyl)cyclobutyl)-2H-tetrazol-5-yl)phenyl)pyrazolo[1,5-a]pyridine-3-carboxamide]
4 | 0.6 nM | – | – | – | Cc1ccc(-c2nnn(C3CC(F)(F)C3)n2)cc1NC(=O)c1cnn2ccc(-c3cnn(CCO)c3)cc12 [Example 46, N-(5-(2-(3,3-difluorocyclobutyl)-2H-tetrazol-5-yl)-2-methylphenyl)-5-(1-(2-hydroxyethyl)-1H-pyrazol-4-yl)pyrazolo[1,5-a]pyridine-3-carboxamide]
5 | 1.9 nM | – | – | – | O=C(Nc1cc(-c2nnn(CCOCC(F)(F)F)n2)ccc1Cl)c1cnn2ccccc12 [Example 22, N-(2-chloro-5-(2-(2-(2,2,2-trifluoroethoxy)ethyl)-2H-tetrazol-5-yl)phenyl)pyrazolo[1,5-a]pyridine-3-carboxamide]
6 | 2.9 nM | – | – | – | Cc1ccc(-n2nnc(C3CN(S(=O)(=O)C4CC4)C3)n2)cc1NC(=O)c1cnn2ccccc12 [Example 188, N-(5-(5-(1-(cyclopropylsulfonyl)azetidin-3-yl)-2H-tetrazol-2-yl)-2-methylphenyl)pyrazolo[1,5-a]pyridine-3-carboxamide]
7 | 3.6 nM | – | – | – | Cc1ccc(-n2nnc(C3CC3)n2)cc1NC(=O)c1cnn2ccccc12 [Example 152, N-(5-(5-cyclopropyl-2H-tetrazol-2-yl)-2-methylphenyl)pyrazolo[1,5-a]pyridine-3-carboxamide]
8 | 2.7 nM | – | – | – | Cc1ccc(-c2nnn([C@@H](C)c3ccccc3F)n2)cc1NC(=O)c1cnn2ccccc12 [Example 33, (S)-N-(5-(2-(1-(2-fluorophenyl)ethyl)-2H-tetrazol-5-yl)-2-methylphenyl)pyrazolo[1,5-a]pyridine-3-carboxamide]
9 | 4.5 nM | – | – | – | Cc1ccc(-c2nnn(CC3CC3(F)F)n2)cc1NC(=O)c1cnn2ccccc12 (stereo not drawn) [Example 6, N-(5-(2-((2,2-difluorocyclopropyl)methyl)-2H-tetrazol-5-yl)-2-methylphenyl)pyrazolo[1,5-a]pyridine-3-carboxamide]
10 | – | 1.3 nM | 14 | – | Cc1ccc(-c2nnn(C(C)C)n2)cc1NC(=O)c1cnn2ccc(-c3cnn(CCO)c3)cc12 [Example 49, 5-(1-(2-hydroxyethyl)-1H-pyrazol-4-yl)-N-(5-(2-isopropyl-2H-tetrazol-5-yl)-2-methylphenyl)pyrazolo[1,5-a]pyridine-3-carboxamide]
11 | – | 1.4 nM | 8.4 | – | Cc1ccc(-c2nnn(C)n2)cc1NC(=O)c1cnn2ccc(-c3cnn(C[C@H](C)O)c3)cc12 (single isomer, unassigned) [Example 54, (S)-5-(1-(2-hydroxypropyl)-1H-pyrazol-4-yl)-N-(2-methyl-5-(2-methyl-2H-tetrazol-5-yl)phenyl)pyrazolo[1,5-a]pyridine-3-carboxamide or (R)-5-(1-(2-hydroxypropyl)-1H-pyrazol-4-yl)-N-(2-methyl-5-(2-methyl-2H-tetrazol-5-yl)phenyl)pyrazolo[1,5-a]pyridine-3-carboxamide]

Second part, the compound before the results:

Row | Compound | IC50 [1] | IC50 [2] | efflux ratio at 2 h, 1 µM [3] | efflux ratio at 2 h, 0.1 µM ([3]; 0.1 uM concentration of compound (denoted by **), read-out: Pgp Efflux Ratio)
12 | Cc1ccc(-n2nnc(C3CC3)n2)cc1NC(=O)c1cnn2ccc(-c3cnn(CCO)c3)cc12 [Example 52, N-(5-(5-cyclopropyl-2H-tetrazol-2-yl)-2-methylphenyl)-5-(1-(2-hydroxyethyl)-1H-pyrazol-4-yl)pyrazolo[1,5-a]pyridine-3-carboxamide] | – | 0.7 nM | 5.9 | –
13 | COCCNc1ccn2ncc(C(=O)Nc3cc(-c4nnn(C5CN(C(=O)OC)C5)n4)c(F)cc3C)c2c1 [Example 114, methyl 3-(5-(2-fluoro-5-(5-((2-methoxyethyl)amino)pyrazolo[1,5-a]pyridine-3-carboxamido)-4-methylphenyl)-2H-tetrazol-2-yl)azetidine-1-carboxylate] | – | 31.3 nM | 14.6 | –
14 | COC[C@@H](O)Cn1ncc(-c2ccn3ncc(C(=O)Nc4cc(-c5nnn(C6CC6)n5)ccc4Cl)c3c2)c1C [Example 248, (S)-N-(2-chloro-5-(2-cyclopropyl-2H-tetrazol-5-yl)phenyl)-5-(1-(2-hydroxy-3-methoxypropyl)-5-methyl-1H-pyrazol-4-yl)pyrazolo[1,5-a]pyridine-3-carboxamide] | – | 0.6 nM | 3.5 | –
15 | COCCNc1ccn2ncc(C(=O)Nc3cc(-n4ncc(C5CN(C(=O)OC)C5)n4)ccc3C)c2c1 [Example 110, methyl 3-(2-(3-(5-((2-methoxyethyl)amino)pyrazolo[1,5-a]pyridine-3-carboxamido)-4-methylphenyl)-2H-1,2,3-triazol-4-yl)azetidine-1-carboxylate] | – | 17.7 nM | 8.7 | –
16 | Cc1ccc(-n2nnc([C@@H]3CC3(F)F)n2)cc1NC(=O)c1cnn2ccc(-c3cnn(CCO)c3)cc12 (single isomer, unassigned) [Example 233, (S)-N-(5-(5-(2,2-difluorocyclopropyl)-2H-tetrazol-2-yl)-2-methylphenyl)-5-(1-(2-hydroxyethyl)-1H-pyrazol-4-yl)pyrazolo[1,5-a]pyridine-3-carboxamide or (R)-N-(5-(5-(2,2-difluorocyclopropyl)-2H-tetrazol-2-yl)-2-methylphenyl)-5-(1-(2-hydroxyethyl)-1H-pyrazol-4-yl)pyrazolo[1,5-a]pyridine-3-carboxamide] | – | 2.2 nM | 6.3 | –
17 | Cc1nn(C[C@H]2CN(C)CCO2)c(C)c1-c1ccn2ncc(C(=O)Nc3cc(-c4nnn(C5CC5)n4)ccc3Cl)c2c1 [Example 274, (R)-N-(2-chloro-5-(2-cyclopropyl-2H-tetrazol-5-yl)phenyl)-5-(3,5-dimethyl-1-((4-methylmorpholin-2-yl)methyl)-1H-pyrazol-4-yl)pyrazolo[1,5-a]pyridine-3-carboxamide] | – | 0.6 nM | 1.7 | –
18 | COC(=O)N1CC(c2nnn(-c3ccc(C)c(NC(=O)c4cnn5ccc(N6CCN(C)CC6)cc45)c3)n2)C1 [Example 112, methyl 3-(2-(4-methyl-3-(5-(4-methylpiperazin-1-yl)pyrazolo[1,5-a]pyridine-3-carboxamido)phenyl)-2H-tetrazol-5-yl)azetidine-1-carboxylate] | – | 43.4 nM | 15.7 | –
19 | Cc1nn(CC(C)(C)O)cc1-c1ccn2ncc(C(=O)Nc3cc(-c4nnn(C5CC5)n4)c(F)cc3Cl)c2c1 [Example 251, N-(2-chloro-5-(2-cyclopropyl-2H-tetrazol-5-yl)-4-fluorophenyl)-5-(1-(2-hydroxy-2-methylpropyl)-3-methyl-1H-pyrazol-4-yl)pyrazolo[1,5-a]pyridine-3-carboxamide] | – | 0.4 nM | – | 1.8
20 | Cc1nnn(-c2ccc(C)c(NC(=O)c3cnn4ccc(-c5cnn(CCO)c5)cc34)c2)n1 [Example 51, 5-(1-(2-hydroxyethyl)-1H-pyrazol-4-yl)-N-(2-methyl-5-(5-methyl-2H-tetrazol-2-yl)phenyl)pyrazolo[1,5-a]pyridine-3-carboxamide] | – | 27.4 nM | 5.5 | –
21 | Cc1cc(Cl)c(NC(=O)c2cnn3ccc(-c4cn(CC5(O)CCOCC5)nc4C)cc23)cc1-c1nnn(C2CC2)n1 [Example 235, N-(2-chloro-5-(2-cyclopropyl-2H-tetrazol-5-yl)-4-methylphenyl)-5-(1-((4-hydroxytetrahydro-2H-pyran-4-yl)methyl)-3-methyl-1H-pyrazol-4-yl)pyrazolo[1,5-a]pyridine-3-carboxamide] | – | 1.6 nM | 3.9 | –
